Reference: the supplement of paper PMC10307832

What was measured:
Assay in all cases: relative viability (nuclei count vs DMSO), 5 days (fraction); higher = more cells survive
[1] = compound: CC1=CC=C(C=C1)C(=O)CN2C3=C(CCCC3)SC2=N [Pifithrin_alpha] + CC(=O)c1c(C)c2cnc(Nc3ccc(N4CCNCC4)cn3)nc2n(C2CCCC2)c1=O [Palbociclib] (partner 0.5 µM)
Summary of the method: (§1)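 Relative viability was taken as the ratio of nuclei in treated wells to nuclei in vehicle wells. Lung cancer cell lines in 1536-well plates received compounds by pin tool one day after seeding, either one drug alone or a fixed anchor-drug dose plus five library-drug doses (not always all listed) in √10 steps. Nuclei were counted on 4× images after 5 days of treatment, and values are medians of duplicate plates.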

[2] = compound: CC1=CC=C(C=C1)C(=O)CN2C3=C(CCCC3)SC2=N [Pifithrin_alpha] + COc1cc2c(Oc3ccc(NC(=O)C4(C(=O)Nc5ccc(F)cc5)CC4)cc3F)ccnc2cc1OCCCN1CCOCC1 [Foretinib] (partner 0.25 µM)
Summary of the method: as §1

[3] = compound: CC1=CC=C(C=C1)C(=O)CN2C3=C(CCCC3)SC2=N [Pifithrin_alpha] + O=C(CCCCCCC(=O)Nc1ccccc1)NO [Vorinostat] (partner 1 µM)
Summary of the method: as §1

Axitinib + Bortezomib = compound: CNC(=O)c1ccccc1Sc1ccc2c(/C=C/c3ccccn3)n[nH]c2c1 [Axitinib] + CC(C)C[C@H](NC(=O)[C@H](Cc1ccccc1)NC(=O)c1cnccn1)B(O)O [Bortezomib] (partner 0.002 µM)
Summary of the method: as §1

NCI-H650
relative viability ([1]; first compound 3.162 µM): 0.371
relative viability ([1]; first compound 10 µM): 0.328
relative viability ([1]; first compound 31.62 µM): 0.204
relative viability ([1]; first compound 100 µM): 0.327
relative viability ([2]; first compound 3.162 µM): 0.996
relative viability ([2]; first compound 10 µM): 1.05
relative viability ([2]; first compound 31.62 µM): 0.793
relative viability ([2]; first compound 100 µM): 0.902
relative viability ([3]; first compound 3.162 µM): 0.439
relative viability ([3]; first compound 10 µM): 0.395
relative viability ([3]; first compound 31.62 µM): 0.305
relative viability ([3]; first compound 100 µM): 0.399
relative viability (Axitinib + Bortezomib; first compound 0.005 µM): 0.739
relative viability (Axitinib + Bortezomib; first compound 0.01581 µM): 0.944
relative viability (Axitinib + Bortezomib; first compound 0.05 µM): 0.683
relative viability (Axitinib + Bortezomib; first compound 0.1581 µM): 0.7
relative viability (Axitinib + Bortezomib; first compound 0.5 µM): 0.816
